Results as given in paper PMC6109843, “Novel Quinazolinone Inhibitors of ALK2 Flip between Alternate Binding Modes: Structure–Activity Relationship, Structural Characterization, Kinase Profiling, and Cellular Proof of Concept” (Journal of Medicinal Chemistry, 2018).

What was measured:
Experiment in all cases: DiscoverX scanEDGE kinase panel
Assay type in all cases: binding
Conditions in all cases: Cmpd Conc 1000 nM, read-out: % Ctrl
[1] = target: T1, ABL1EP (Homo sapiens, UniProt P00519)
T1 construct: purchased DiscoverX (DiscoveRx) KINOMEscan scanEDGE / KdELECT
Excerpt: (§1) We hypothesized that inhibitors of the normal and flipped modes would display distinct selectivity profiles.
(§2) 1. 16 and 21 kinome selectivity data
(§3) (P – phosphorylated; nP – nonphosphorylated; % Ctrl values show the % of DNAEtagged
(§4) kinase which was not displaced from a solid supported ligand by a test compound relative to
(§5) untreated control, quantified by qPCR).
(§6) Please note: ALKs 1, 2, 3, 4, 5 and 6 are listed by their gene symbols: ACVRL1 (ALK1), ACVR1
(§7) (ALK2), BMPR1A (ALK3), ACVR1B (ALK4), TGFBR1 (ALK5) and BMPR1B (ALK6)
(§8) Cmpd DiscoverX Gene Symbol Entrez Gene Symbol % Ctrl Cmpd Conc (nM)

[2] = target: T2, ABL1EnP (Homo sapiens, UniProt P00519)
T2 construct: purchased DiscoverX (DiscoveRx) KINOMEscan scanEDGE / KdELECT
Excerpt: as §1, §2, §3, §4, §5, §6, §7, §8

[3] = target: T3, ABL2 (Homo sapiens, UniProt P42684)
T3 construct: purchased DiscoverX (DiscoveRx) KINOMEscan scanEDGE / KdELECT
Excerpt: as §1, §2, §3, §4, §5, §6, §7, §8

[4] = target: T4, ACVR1B (ALK4) (Homo sapiens, UniProt P36896)
T4 construct: purchased DiscoverX (DiscoveRx) KINOMEscan scanEDGE / KdELECT
Excerpt: as §1, §2, §3, §4, §5, §6, §7, §8

[5] = target: T5, AURKB (Homo sapiens, UniProt Q96GD4)
T5 construct: purchased DiscoverX (DiscoveRx) KINOMEscan scanEDGE / KdELECT
Excerpt: as §1, §2, §3, §4, §5, §6, §7, §8

[6] = target: T6, AXL (Homo sapiens, UniProt P30530)
T6 construct: purchased DiscoverX (DiscoveRx) KINOMEscan scanEDGE / KdELECT
Excerpt: as §1, §2, §3, §4, §5, §6, §7, §8

[7] = target: T7, BMPR1A (ALK3) (Homo sapiens, UniProt P36894)
T7 construct: purchased DiscoverX (DiscoveRx) KINOMEscan scanEDGE / KdELECT
Excerpt: as §1, §2, §3, §4, §5, §6, §7, §8

[8] = target: T8, BRAF (Homo sapiens, UniProt P15056)
T8 construct: purchased DiscoverX (DiscoveRx) KINOMEscan scanEDGE / KdELECT
Excerpt: as §1, §2, §3, §4, §5, §6, §7, §8

[9] = target: T9, BTK (Homo sapiens, UniProt Q06187)
T9 construct: purchased DiscoverX (DiscoveRx) KINOMEscan scanEDGE / KdELECT
Excerpt: as §1, §2, §3, §4, §5, §6, §7, §8

[10] = target: T10, CDK3 (Homo sapiens, UniProt Q00526)
T10 construct: purchased DiscoverX (DiscoveRx) KINOMEscan scanEDGE / KdELECT
Excerpt: as §1, §2, §3, §4, §5, §6, §7, §8

[11] = target: T11, DYRK1B (Homo sapiens, UniProt Q9Y463)
T11 construct: purchased DiscoverX (DiscoveRx) KINOMEscan scanEDGE / KdELECT
Excerpt: as §1, §2, §3, §4, §5, §6, §7, §8

[12] = target: T12, EGFR (Homo sapiens, UniProt P00533)
T12 construct: purchased DiscoverX (DiscoveRx) KINOMEscan scanEDGE / KdELECT
Excerpt: as §1, §2, §3, §4, §5, §6, §7, §8

[13] = target: T13, EPHA2 (Homo sapiens, UniProt P29317)
T13 construct: purchased DiscoverX (DiscoveRx) KINOMEscan scanEDGE / KdELECT
Excerpt: as §1, §2, §3, §4, §5, §6, §7, §8

[14] = target: T14, ERBB2 (Homo sapiens, UniProt P04626)
T14 construct: purchased DiscoverX (DiscoveRx) KINOMEscan scanEDGE / KdELECT
Excerpt: as §1, §2, §3, §4, §5, §6, §7, §8

[15] = target: T15, ERBB4 (Homo sapiens, UniProt Q15303)
T15 construct: purchased DiscoverX (DiscoveRx) KINOMEscan scanEDGE / KdELECT
Excerpt: as §1, §2, §3, §4, §5, §6, §7, §8

[16] = target: T16, ERK1 (Homo sapiens, UniProt P27361)
T16 construct: purchased DiscoverX (DiscoveRx) KINOMEscan scanEDGE / KdELECT
Excerpt: as §1, §2, §3, §4, §5, §6, §7, §8

[17] = target: T17, FAK (Homo sapiens, UniProt Q05397)
T17 construct: purchased DiscoverX (DiscoveRx) KINOMEscan scanEDGE / KdELECT
Excerpt: as §1, §2, §3, §4, §5, §6, §7, §8

[18] = target: T18, FGFR2 (Homo sapiens, UniProt P21802)
T18 construct: purchased DiscoverX (DiscoveRx) KINOMEscan scanEDGE / KdELECT
Excerpt: as §1, §2, §3, §4, §5, §6, §7, §8

[19] = target: T19, FYN (Homo sapiens, UniProt P06241)
T19 construct: purchased DiscoverX (DiscoveRx) KINOMEscan scanEDGE / KdELECT
Excerpt: as §1, §2, §3, §4, §5, §6, §7, §8

[20] = target: T20, GSK3B (Homo sapiens, UniProt P49841)
T20 construct: purchased DiscoverX (DiscoveRx) KINOMEscan scanEDGE / KdELECT
Excerpt: as §1, §2, §3, §4, §5, §6, §7, §8

[21] = target: T21, IKKEbeta (Homo sapiens, UniProt O14920)
T21 construct: purchased DiscoverX (DiscoveRx) KINOMEscan scanEDGE / KdELECT
Excerpt: as §1, §2, §3, §4, §5, §6, §7, §8

[22] = target: T22, JNK2 (Homo sapiens, UniProt P45984)
T22 construct: purchased DiscoverX (DiscoveRx) KINOMEscan scanEDGE / KdELECT
Excerpt: as §1, §2, §3, §4, §5, §6, §7, §8

[23] = target: T23, KIT(V559D,T670I) (Homo sapiens, UniProt P10721, T670I/V559D)
T23 construct: purchased DiscoverX (DiscoveRx) KINOMEscan scanEDGE / KdELECT
Excerpt: as §1, §2, §3, §4, §5, §6, §7, §8

[24] = target: T24, LKB1 (Homo sapiens, UniProt Q15831)
T24 construct: purchased DiscoverX (DiscoveRx) KINOMEscan scanEDGE / KdELECT
Excerpt: as §1, §2, §3, §4, §5, §6, §7, §8

[25] = target: T25, MAP3K4 (Homo sapiens, UniProt Q9Y6R4)
T25 construct: purchased DiscoverX (DiscoveRx) KINOMEscan scanEDGE / KdELECT
Excerpt: as §1, §2, §3, §4, §5, §6, §7, §8

[26] = target: T26, MAPKAPK2 (Homo sapiens, UniProt P49137)
T26 construct: purchased DiscoverX (DiscoveRx) KINOMEscan scanEDGE / KdELECT
Excerpt: as §1, §2, §3, §4, §5, §6, §7, §8

[27] = target: T27, MEK1 (Homo sapiens, UniProt Q02750)
T27 construct: purchased DiscoverX (DiscoveRx) KINOMEscan scanEDGE / KdELECT
Excerpt: as §1, §2, §3, §4, §5, §6, §7, §8

[28] = target: T28, MET (Homo sapiens, UniProt P08581)
T28 construct: purchased DiscoverX (DiscoveRx) KINOMEscan scanEDGE / KdELECT
Excerpt: as §1, §2, §3, §4, §5, §6, §7, §8

[29] = target: T29, MINK (Homo sapiens, UniProt Q8N4C8)
T29 construct: purchased DiscoverX (DiscoveRx) KINOMEscan scanEDGE / KdELECT
Excerpt: as §1, §2, §3, §4, §5, §6, §7, §8

[30] = target: T30, MKNK2 (Homo sapiens, UniProt Q9HBH9)
T30 construct: purchased DiscoverX (DiscoveRx) KINOMEscan scanEDGE / KdELECT
Excerpt: as §1, §2, §3, §4, §5, §6, §7, §8

[31] = target: T31, NEK6 (Homo sapiens, UniProt Q9HC98)
T31 construct: purchased DiscoverX (DiscoveRx) KINOMEscan scanEDGE / KdELECT
Excerpt: as §1, §2, §3, §4, §5, §6, §7, §8

[32] = target: T32, PDGFRB (Homo sapiens, UniProt P09619)
T32 construct: purchased DiscoverX (DiscoveRx) KINOMEscan scanEDGE / KdELECT
Excerpt: as §1, §2, §3, §4, §5, §6, §7, §8

[33] = target: T33, PDPK1 (Homo sapiens, UniProt O15530)
T33 construct: purchased DiscoverX (DiscoveRx) KINOMEscan scanEDGE / KdELECT
Excerpt: as §1, §2, §3, §4, §5, §6, §7, §8

[34] = target: T34, PIM2 (Homo sapiens, UniProt Q9P1W9)
T34 construct: purchased DiscoverX (DiscoveRx) KINOMEscan scanEDGE / KdELECT
Excerpt: as §1, §2, §3, §4, §5, §6, §7, §8

[35] = target: T35, PLK3 (Homo sapiens, UniProt Q9H4B4)
T35 construct: purchased DiscoverX (DiscoveRx) KINOMEscan scanEDGE / KdELECT
Excerpt: as §1, §2, §3, §4, §5, §6, §7, §8

[36] = target: T36, PLK4 (Homo sapiens, UniProt O00444)
T36 construct: purchased DiscoverX (DiscoveRx) KINOMEscan scanEDGE / KdELECT
Excerpt: as §1, §2, §3, §4, §5, §6, §7, §8

[37] = target: T37, RIPK2 (Homo sapiens, UniProt O43353)
T37 construct: purchased DiscoverX (DiscoveRx) KINOMEscan scanEDGE / KdELECT
Excerpt: as §1, §2, §3, §4, §5, §6, §7, §8

[38] = target: T38, TGFBR1 (ALK5) (Homo sapiens, UniProt P36897)
T38 construct: purchased DiscoverX (DiscoveRx) KINOMEscan scanEDGE / KdELECT
Excerpt: as §1, §2, §3, §4, §5, §6, §7, §8

[39] = target: T39, VEGFR2 (Homo sapiens, UniProt P35968)
T39 construct: purchased DiscoverX (DiscoveRx) KINOMEscan scanEDGE / KdELECT
Excerpt: as §1, §2, §3, §4, §5, §6, §7, §8

[40] = target: T40, p38Ebeta (Homo sapiens, UniProt Q15759)
T40 construct: purchased DiscoverX (DiscoveRx) KINOMEscan scanEDGE / KdELECT
Excerpt: as §1, §2, §3, §4, §5, §6, §7, §8

T4 sequence (P36896 24-505): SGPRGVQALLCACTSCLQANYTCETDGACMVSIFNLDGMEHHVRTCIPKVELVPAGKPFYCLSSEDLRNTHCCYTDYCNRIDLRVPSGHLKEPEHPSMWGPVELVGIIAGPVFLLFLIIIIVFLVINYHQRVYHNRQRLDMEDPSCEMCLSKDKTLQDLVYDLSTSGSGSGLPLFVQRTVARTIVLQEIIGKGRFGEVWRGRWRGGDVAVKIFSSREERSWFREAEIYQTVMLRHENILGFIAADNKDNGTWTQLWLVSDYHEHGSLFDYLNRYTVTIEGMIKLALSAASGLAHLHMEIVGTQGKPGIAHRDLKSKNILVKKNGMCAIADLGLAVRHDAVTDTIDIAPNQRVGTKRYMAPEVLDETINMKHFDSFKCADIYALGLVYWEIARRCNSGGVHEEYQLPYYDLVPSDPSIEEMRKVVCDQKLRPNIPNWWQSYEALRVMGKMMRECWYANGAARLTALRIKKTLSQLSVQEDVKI
T38 sequence (P36897 34-503): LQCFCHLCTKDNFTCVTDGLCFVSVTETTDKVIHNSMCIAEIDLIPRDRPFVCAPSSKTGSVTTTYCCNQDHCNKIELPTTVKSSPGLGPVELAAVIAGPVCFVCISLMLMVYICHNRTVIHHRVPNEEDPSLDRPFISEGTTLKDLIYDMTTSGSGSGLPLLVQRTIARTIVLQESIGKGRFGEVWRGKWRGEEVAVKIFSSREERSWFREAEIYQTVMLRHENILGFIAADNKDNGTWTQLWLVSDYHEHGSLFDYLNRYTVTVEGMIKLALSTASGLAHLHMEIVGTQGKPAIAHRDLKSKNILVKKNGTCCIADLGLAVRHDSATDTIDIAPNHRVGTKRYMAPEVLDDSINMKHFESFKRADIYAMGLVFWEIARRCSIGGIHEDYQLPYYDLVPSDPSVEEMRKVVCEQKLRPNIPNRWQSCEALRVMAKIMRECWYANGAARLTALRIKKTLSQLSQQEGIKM
T40 sequence (Q15759 whole entry): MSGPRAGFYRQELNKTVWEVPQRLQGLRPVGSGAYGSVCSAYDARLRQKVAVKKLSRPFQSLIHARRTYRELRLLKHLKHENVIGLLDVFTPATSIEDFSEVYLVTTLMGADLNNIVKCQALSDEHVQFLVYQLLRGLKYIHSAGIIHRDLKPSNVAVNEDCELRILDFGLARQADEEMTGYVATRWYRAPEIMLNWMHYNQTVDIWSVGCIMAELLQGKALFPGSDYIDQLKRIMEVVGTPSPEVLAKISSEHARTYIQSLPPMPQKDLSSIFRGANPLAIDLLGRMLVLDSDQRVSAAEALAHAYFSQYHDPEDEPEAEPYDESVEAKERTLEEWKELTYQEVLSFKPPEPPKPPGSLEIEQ
T35 sequence (Q9H4B4 whole entry): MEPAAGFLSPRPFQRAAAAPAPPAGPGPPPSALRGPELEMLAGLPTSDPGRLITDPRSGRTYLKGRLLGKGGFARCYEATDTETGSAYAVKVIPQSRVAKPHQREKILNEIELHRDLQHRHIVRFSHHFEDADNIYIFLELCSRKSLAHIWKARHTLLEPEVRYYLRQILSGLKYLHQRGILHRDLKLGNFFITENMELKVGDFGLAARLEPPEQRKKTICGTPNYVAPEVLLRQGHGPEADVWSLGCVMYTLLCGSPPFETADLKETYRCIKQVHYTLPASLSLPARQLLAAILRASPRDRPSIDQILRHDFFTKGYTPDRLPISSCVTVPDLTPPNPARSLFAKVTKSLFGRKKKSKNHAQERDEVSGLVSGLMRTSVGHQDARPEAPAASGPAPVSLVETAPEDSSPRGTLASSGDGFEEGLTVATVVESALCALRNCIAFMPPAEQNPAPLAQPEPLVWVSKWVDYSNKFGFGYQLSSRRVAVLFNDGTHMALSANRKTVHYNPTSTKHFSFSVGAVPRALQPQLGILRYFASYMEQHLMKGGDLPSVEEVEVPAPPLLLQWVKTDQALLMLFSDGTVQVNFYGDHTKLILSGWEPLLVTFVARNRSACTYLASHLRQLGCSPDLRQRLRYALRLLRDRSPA
T25 sequence (Q9Y6R4 whole entry): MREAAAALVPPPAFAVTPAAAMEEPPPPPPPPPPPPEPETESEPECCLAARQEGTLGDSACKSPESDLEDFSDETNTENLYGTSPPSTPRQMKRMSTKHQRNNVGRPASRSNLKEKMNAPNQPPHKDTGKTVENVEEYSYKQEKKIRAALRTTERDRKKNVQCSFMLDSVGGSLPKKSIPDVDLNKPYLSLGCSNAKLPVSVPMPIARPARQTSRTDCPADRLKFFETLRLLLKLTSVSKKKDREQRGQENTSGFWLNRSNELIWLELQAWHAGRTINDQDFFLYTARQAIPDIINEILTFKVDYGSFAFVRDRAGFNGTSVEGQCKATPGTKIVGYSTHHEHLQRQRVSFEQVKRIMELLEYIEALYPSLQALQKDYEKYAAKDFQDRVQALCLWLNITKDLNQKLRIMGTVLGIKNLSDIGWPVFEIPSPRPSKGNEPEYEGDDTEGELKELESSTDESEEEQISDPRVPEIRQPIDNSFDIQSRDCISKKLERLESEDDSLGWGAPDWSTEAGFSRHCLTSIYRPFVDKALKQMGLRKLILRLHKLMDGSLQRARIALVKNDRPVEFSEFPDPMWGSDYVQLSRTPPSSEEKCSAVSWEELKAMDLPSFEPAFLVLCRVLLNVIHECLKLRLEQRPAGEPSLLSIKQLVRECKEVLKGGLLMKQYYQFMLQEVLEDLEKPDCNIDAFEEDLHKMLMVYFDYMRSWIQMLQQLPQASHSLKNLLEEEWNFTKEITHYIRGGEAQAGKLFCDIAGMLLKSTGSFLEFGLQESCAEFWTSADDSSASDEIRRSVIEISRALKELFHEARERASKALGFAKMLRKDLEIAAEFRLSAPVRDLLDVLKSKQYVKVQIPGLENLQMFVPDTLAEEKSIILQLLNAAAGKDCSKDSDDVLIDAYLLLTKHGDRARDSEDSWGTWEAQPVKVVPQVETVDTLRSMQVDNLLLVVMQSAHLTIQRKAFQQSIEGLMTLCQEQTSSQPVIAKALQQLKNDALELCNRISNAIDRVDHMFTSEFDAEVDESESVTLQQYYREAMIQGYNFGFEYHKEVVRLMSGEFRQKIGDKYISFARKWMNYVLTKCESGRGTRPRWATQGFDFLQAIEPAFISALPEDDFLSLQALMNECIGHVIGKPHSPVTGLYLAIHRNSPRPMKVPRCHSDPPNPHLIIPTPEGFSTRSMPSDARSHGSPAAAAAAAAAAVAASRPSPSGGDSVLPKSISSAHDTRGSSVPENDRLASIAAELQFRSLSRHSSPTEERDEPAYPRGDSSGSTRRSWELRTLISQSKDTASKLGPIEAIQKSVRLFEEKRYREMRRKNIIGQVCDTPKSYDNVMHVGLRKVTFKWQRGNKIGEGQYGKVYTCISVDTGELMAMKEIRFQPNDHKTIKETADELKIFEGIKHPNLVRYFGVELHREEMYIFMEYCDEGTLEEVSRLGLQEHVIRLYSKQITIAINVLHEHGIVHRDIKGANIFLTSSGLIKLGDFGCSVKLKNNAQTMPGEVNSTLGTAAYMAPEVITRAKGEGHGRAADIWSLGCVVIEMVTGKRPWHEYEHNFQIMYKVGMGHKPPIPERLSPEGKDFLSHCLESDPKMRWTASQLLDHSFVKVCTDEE
T18 sequence (P21802 22-821): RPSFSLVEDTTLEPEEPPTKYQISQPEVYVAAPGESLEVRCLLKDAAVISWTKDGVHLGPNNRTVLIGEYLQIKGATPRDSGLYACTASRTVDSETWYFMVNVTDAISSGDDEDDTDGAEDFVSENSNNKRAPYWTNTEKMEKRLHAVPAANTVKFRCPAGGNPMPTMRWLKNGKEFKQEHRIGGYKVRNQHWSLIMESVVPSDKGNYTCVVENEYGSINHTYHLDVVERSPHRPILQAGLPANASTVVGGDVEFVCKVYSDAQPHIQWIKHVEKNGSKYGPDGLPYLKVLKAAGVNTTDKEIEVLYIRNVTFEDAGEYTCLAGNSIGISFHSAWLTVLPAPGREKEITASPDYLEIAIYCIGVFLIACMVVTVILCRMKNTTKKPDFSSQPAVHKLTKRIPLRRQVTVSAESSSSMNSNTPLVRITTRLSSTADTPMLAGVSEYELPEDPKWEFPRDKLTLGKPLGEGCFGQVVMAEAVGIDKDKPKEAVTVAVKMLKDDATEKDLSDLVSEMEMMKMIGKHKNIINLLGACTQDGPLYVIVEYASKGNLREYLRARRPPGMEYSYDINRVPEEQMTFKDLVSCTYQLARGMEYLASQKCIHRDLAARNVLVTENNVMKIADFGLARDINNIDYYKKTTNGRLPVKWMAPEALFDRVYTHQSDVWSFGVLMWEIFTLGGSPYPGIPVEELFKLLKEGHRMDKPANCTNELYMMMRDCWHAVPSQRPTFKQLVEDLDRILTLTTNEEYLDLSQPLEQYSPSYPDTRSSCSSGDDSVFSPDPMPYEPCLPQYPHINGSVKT
T26 sequence (P49137 whole entry): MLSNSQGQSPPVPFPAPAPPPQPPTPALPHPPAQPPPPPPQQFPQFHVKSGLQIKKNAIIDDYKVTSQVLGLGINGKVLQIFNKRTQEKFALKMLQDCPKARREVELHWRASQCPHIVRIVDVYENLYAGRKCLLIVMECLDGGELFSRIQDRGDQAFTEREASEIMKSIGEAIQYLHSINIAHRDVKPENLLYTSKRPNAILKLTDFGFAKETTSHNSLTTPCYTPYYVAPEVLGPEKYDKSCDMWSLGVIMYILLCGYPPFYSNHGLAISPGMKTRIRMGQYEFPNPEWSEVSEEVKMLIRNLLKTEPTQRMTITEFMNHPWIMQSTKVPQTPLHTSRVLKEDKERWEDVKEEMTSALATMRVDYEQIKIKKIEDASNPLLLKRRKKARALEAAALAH

remaining binding at 1 µM [1]: 97% | remaining binding at 1 µM [2]: 91% | remaining binding at 1 µM [3]: 93% | remaining binding at 1 µM [4]: 18% | remaining binding at 1 µM [5]: 94% | remaining binding at 1 µM [6]: 98% | remaining binding at 1 µM [7]: 65% | remaining binding at 1 µM [8]: 17% | remaining binding at 1 µM [9]: 100% | remaining binding at 1 µM [10]: 94% | remaining binding at 1 µM [11]: 92% | remaining binding at 1 µM [12]: 98% | remaining binding at 1 µM [13]: 100% | remaining binding at 1 µM [14]: 100% | remaining binding at 1 µM [15]: 100% | remaining binding at 1 µM [16]: 98% | remaining binding at 1 µM [17]: 98% | remaining binding at 1 µM [18]: 100% | remaining binding at 1 µM [19]: 100% | remaining binding at 1 µM [20]: 97% | remaining binding at 1 µM [21]: 95% | remaining binding at 1 µM [22]: 91% | remaining binding at 1 µM [23]: 98% | remaining binding at 1 µM [24]: 100% | remaining binding at 1 µM [25]: 90% | remaining binding at 1 µM [26]: 100% | remaining binding at 1 µM [27]: 85% | remaining binding at 1 µM [28]: 88% | remaining binding at 1 µM [29]: 89% | remaining binding at 1 µM [30]: 92% | remaining binding at 1 µM [31]: 100% | remaining binding at 1 µM [32]: 81% | remaining binding at 1 µM [33]: 95% | remaining binding at 1 µM [34]: 96% | remaining binding at 1 µM [35]: 96% | remaining binding at 1 µM [36]: 100% | remaining binding at 1 µM [37]: 68% | remaining binding at 1 µM [38]: 30% | remaining binding at 1 µM [39]: 99% | remaining binding at 1 µM [40]: 99%
Compound: Cc1nc2ccc(-c3ccnc4ccccc34)c(C)c2c(=O)[nH]1 [compound 21, 2,5-Dimethyl-6-(quinolin-4-yl)quinazolin-4(3H)-one]
